Measured values: patent US20100324017A1, “ACYLGUANIDINE DERIVATIVE” (priority 2007, published 2010)

Test system: PCP-induced prepulse inhibition (PPI) disorder
Assay: Disorder of PCP-induced prepulse inhibition (PPI) in a rat
Type: in vivo
Conditions: dose 10 mg/kg, PCP 1 mg/kg s.c., % PPI
Description: An Improvement Effect for a Disorder of PCP-Induced Prepulse Inhibition (PPI) in a Rat
A startle amplitude occurs in humans to which an sound stimulus has been given, but in healthy human, this startle amplitude is inhibited by the giving of a weak sound stimulus that precedes the sound stimulus. For a patient with schizophrenia, the inhibitory function similarly declined. It is known that when a rat is administered with PCP (phencyclidine), there is a symptom similar to the negative symptom of schizophrenia in humans. Using this model, the improvement effect of the compound (I) for the information processing disorder included in cognitive impairment of schizophrenia was evaluated.
Species: Male Wistar rat/number of the animals (number of animals per group): 12 animals per group
Startle amplitude measuring device for small animals: an SR-LAB ABS system (manufactured by San Diego Instruments)
An animal holder, to which a Plexiglas-made cylinder for animal storage having a diameter of 8.2 cm was attached, was positioned in the upper part of a Plexiglas-made frame in a measurement box. In the measurement box, a sound-insulating treatment and ventilation (FAN) were carried out. Sound was administered by a speaker attached to the 24 cm upper part of the cylinder. The movement of the animals in the cylinder was detected by a transducer attached in the lower part of the frame and recorded by a microcomputer via an interface.
The experiment was initiated after the animals were put into the chamber for measurement and had spent 10 minutes adapting to the measurement environment. Basically, at 35 minutes after the compound to be tested was orally administered, 1 mg/kg of PCP was subcutaneously administered (1 ml/kg). Five minutes later, the rats were put into a chamber for measurement, allowed to adapt for 10 minutes, and the measurement was then initiated. A white noise of 65 dB (for all frequencies, a disordered noise having a constant energy per unit band) used as a background noise was always played through the break periods and the sessions. The three types of trials as shown below were carried out in a random order 10 times for each type with 30 times in total. Each trial was carried out at a pseudo-random interval of 20 to 60 seconds with an average of 40 seconds. A pulse was defined as a white noise of 120 dB, 20 msec, and a prepulse was defined as a white noise of 70, 80 dB, 20 msec.
The startle amplitude of the animal was measured for 100 msec from the initiation of the pulse, and the maximum value was taken as a “maximum startle amplitude (Vmax))”. The “maximum startle amplitude” for the ten times for each of the three types of trials were averaged, and taken as a “startle amplitude (simply referred to as SA)” under the stimulation condition.
The % prepulse inhibition (% PPI) was calculated in the following equation in the PP80 & P trial of 3) above.
% Prepulse inhibition (% PPI)=(Startle amplitude at P-alone trial (SA)−Startle amplitude (SA) at a PP80 & P trial)/Startle amplitude at P alone trial×100
The measured value was expressed as an average value (mean±SE). First, the startle amplitudes (SA) were statistically analyzed. […] For the measured data of % PPI, the normal group and the control group (the group administered with PCP) were compared by a Student t-test, and for the control group and the group administered with the compound to be tested were compared using a Dunnett evaluation. […] The effect of the compound to be tested was assessed with % PPI.

OCCOCCN1CCN(C2=Nc3ccccc3Sc3ccccc32)CC1 [quetiapine, reference compound]
improvement of the PCP-induced PPI: significantly improved
